Assay results from ChEMBL document CHEMBL1781959, “Synthesis and in vitro antitumor activity of substituted quinazoline and quinoxaline derivatives: search for anticancer agent” (Eur J Med Chem, 2011).

Experiments:
Assay type in all cases: functional
HCT-116 = assay: Anticancer activity against human HCT116 cells assessed as cell growth promotion at 10^-5 M after 48 hrs by SRB assay relative to control
K562 = assay: Anticancer activity against human K562 cells assessed as cell growth promotion at 10^-5 M after 48 hrs by SRB assay relative to control
MOLT-4 = assay: Anticancer activity against human MOLT4 cells assessed as cell growth promotion at 10^-5 M after 48 hrs by SRB assay relative to control
MCF7 = assay: Anticancer activity against human MCF7 cells assessed as cell growth promotion at 10^-5 M after 48 hrs by SRB assay relative to control
UACC-257 = assay: Anticancer activity against human UACC257 cells assessed as cell growth promotion at 10^-5 M after 48 hrs by SRB assay relative to control
HCC 2998 = assay: Anticancer activity against human HCC2998 cells assessed as cell growth promotion at 10^-5 M after 48 hrs by SRB assay relative to control
786-0 = assay: Anticancer activity against human 786-0 cells assessed as cell growth promotion at 10^-5 M after 48 hrs by SRB assay relative to control
SK-OV-3 = assay: Anticancer activity against human SKOV3 cells assessed as cell growth promotion at 10^-5 M after 48 hrs by SRB assay relative to control
CCRF-CEM = assay: Anticancer activity against human CCRF-CEM cells assessed as cell growth promotion at 10^-5 M after 48 hrs by SRB assay relative to control
PC-3 = assay: Anticancer activity against human PC3 cells assessed as cell growth promotion at 10^-5 M after 48 hrs by SRB assay relative to control
NCI-H322M = assay: Anticancer activity against human NCI-H322M cells assessed as cell growth promotion at 10^-5 M after 48 hrs by SRB assay relative to control
HCT-15 = assay: Anticancer activity against human HCT15 cells assessed as cell growth promotion at 10^-5 M after 48 hrs by SRB assay relative to control
LOX IMVI = assay: Anticancer activity against human LOXIMVI cells assessed as cell growth promotion at 10^-5 M after 48 hrs by SRB assay relative to control
M14 = assay: Anticancer activity against human M14 cells assessed as cell growth promotion at 10^-5 M after 48 hrs by SRB assay relative to control
SF-539 = assay: Anticancer activity against human SF539 cells assessed as cell growth promotion at 10^-5 M after 48 hrs by SRB assay relative to control
SF-268 = assay: Anticancer activity against human SF268 cells assessed as cell growth promotion at 10^-5 M after 48 hrs by SRB assay relative to control
A549 = assay: Anticancer activity against human A549 cells assessed as cell growth promotion at 10^-5 M after 48 hrs by SRB assay relative to control
OVCAR-5 = assay: Anticancer activity against human OVCAR5 cells assessed as cell growth promotion at 10^-5 M after 48 hrs by SRB assay relative to control
UO-31 = assay: Anticancer activity against human UO31 cells assessed as cell growth promotion at 10^-5 M after 48 hrs by SRB assay relative to control
RXF 393 = assay: Anticancer activity against human RXF393 cells assessed as cell growth promotion at 10^-5 M after 48 hrs by SRB assay relative to control
SNB-19 = assay: Anticancer activity against human SNB19 cells assessed as cell growth promotion at 10^-5 M after 48 hrs by SRB assay relative to control
SF-295 = assay: Anticancer activity against human SF295 cells assessed as cell growth promotion at 10^-5 M after 48 hrs by SRB assay relative to control
T47D = assay: Anticancer activity against human T47D cells assessed as cell growth promotion at 10^-5 M after 48 hrs by SRB assay relative to control
EKVX = assay: Anticancer activity against human EKVX cells assessed as cell growth promotion at 10^-5 M after 48 hrs by SRB assay relative to control
KM12 = assay: Anticancer activity against human KM12 cells assessed as cell growth promotion at 10^-5 M after 48 hrs by SRB assay relative to control
SW-620 = assay: Anticancer activity against human SW620 cells assessed as cell growth promotion at 10^-5 M after 48 hrs by SRB assay relative to control
MDA-MB-468 = assay: Anticancer activity against human MDA-MB-468 cells assessed as cell growth promotion at 10^-5 M after 48 hrs by SRB assay relative to control
ACHN = assay: Anticancer activity against human ACHN cells assessed as cell growth promotion at 10^-5 M after 48 hrs by SRB assay relative to control
SK-MEL-5 = assay: Anticancer activity against human SK-MEL-5 cells assessed as cell growth promotion at 10^-5 M after 48 hrs by SRB assay relative to control
UACC-62 = assay: Anticancer activity against human UACC62 cells assessed as cell growth promotion at 10^-5 M after 48 hrs by SRB assay relative to control
MDA-MB-435 = assay: Anticancer activity against human MDA-MB-435 cells assessed as cell growth promotion at 10^-5 M after 48 hrs by SRB assay relative to control
Malme-3M = assay: Anticancer activity against human MALME-3M cells assessed as cell growth promotion at 10^-5 M after 48 hrs by SRB assay relative to control
SN12C = assay: Anticancer activity against human SN12C cells assessed as cell growth promotion at 10^-5 M after 48 hrs by SRB assay relative to control
A498 = assay: Anticancer activity against human A498 cells assessed as cell growth promotion at 10^-5 M after 48 hrs by SRB assay relative to control
NCI/ADR-RES = assay: Anticancer activity against human NCI/ADR-RES cells assessed as cell growth promotion at 10^-5 M after 48 hrs by SRB assay relative to control
SK-MEL-28 = assay: Anticancer activity against human SK-MEL-28 cells assessed as cell growth promotion at 10^-5 M after 48 hrs by SRB assay relative to control
NCI-H460 = assay: Anticancer activity against human NCI-H460 cells assessed as cell growth promotion at 10^-5 M after 48 hrs by SRB assay relative to control
OVCAR-8 = assay: Anticancer activity against human OVCAR8 cells assessed as cell growth promotion at 10^-5 M after 48 hrs by SRB assay relative to control
NCI-H23 = assay: Anticancer activity against human NCI-H23 cells assessed as cell growth promotion at 10^-5 M after 48 hrs by SRB assay relative to control
[1] = Anticancer activity against human Hs 578T cells assessed as cell growth promotion at 10^-5 M after 48 hrs by SRB assay relative to control

Row | SMILES | Activity (HCT-116) | Activity (K562) | Activity (MOLT-4) | Activity (MCF7) | Activity (UACC-257) | Activity (HCC 2998) | Activity (786-0) | Activity (SK-OV-3) | Activity (CCRF-CEM) | Activity (PC-3) | Activity (NCI-H322M) | Activity (HCT-15) | Activity (LOX IMVI) | Activity (M14) | Activity (SF-539) | Activity (SF-268) | Activity (A549) | Activity (OVCAR-5) | Activity (UO-31) | Activity (RXF 393) | further results
1 | O=C(O)c1ccc(-n2c(-c3ccco3)nc3ccccc3c2=O)cc1 | 99.69% | 98.25% | 91.05% | 63.47% | 107.43% | 120.31% | 105.17% | 107.59% | 87.86% | 86.25% | 97.61% | 93.69% | 98.82% | 103.37% | 104.2% | 106.85% | 104.77% | 98.22% | 68.61% | 109.93% | Activity (SNB-19): 91.35%; Activity (SF-295): 108.58%; Activity (T47D): 83%; Activity (EKVX): 98.39%; Activity (KM12): 104.99%; Activity (SW-620): 106.15%; Activity (MDA-MB-468): 101.43%; Activity (ACHN): 101.24%; Activity (SK-MEL-5): 94.96%; Activity (UACC-62): 84.67%; Activity (MDA-MB-435): 112.17%; Activity (Malme-3M): 102.96%; Activity (SN12C): 99.34%; Activity (A498): 106.88%; Activity (NCI/ADR-RES): 102.28%; Activity (SK-MEL-28): 115.08%; Activity (NCI-H460): 95.38%; Activity (OVCAR-8): 104.87%; Activity (NCI-H23): 98.82%
2 | O=c1c2ccccc2nc(-c2ccco2)n1O | 105.94% | 105.54% | 101.31% | 103.51% | 112.27% | 119.5% | 104.23% | 106.84% | 98.16% | 91.05% | 97.18% | 108.36% | 107.97% | 89.53% | 95.42% | 106.3% | 113.82% | 100.49% | 68.92% | 117.15% | Activity (SNB-19): 101.58%; Activity (SF-295): 117.66%; Activity (T47D): 106.81%; Activity (EKVX): 109.13%; Activity (KM12): 110.22%; Activity (SW-620): 107.69%; Activity (MDA-MB-468): 115.34%; Activity (ACHN): 98.81%; Activity (SK-MEL-5): 111.56%; Activity (UACC-62): 92.42%; Activity (MDA-MB-435): 124.51%; Activity (Malme-3M): 122.97%; Activity (SN12C): 98.6%; Activity (A498): 97.65%; Activity (NCI/ADR-RES): 112.3%; Activity (SK-MEL-28): 109.58%; Activity (NCI-H460): 108.52%; Activity (OVCAR-8): 110.28%; Activity (NCI-H23): 105.41%
3 | O=C(Nc1ccccc1C(=O)Nc1ccc(/C=C/c2ccc(Cl)cc2)cc1)c1ccccc1 | 49.35% | 57.81% | 59.17% | 82.72% | 94.73% | 78.38% | 75.14% | 95.35% | 52.41% | 65.2% | 89.27% | 65.81% | 74.93% | 78.5% | 91.8% | 82.84% | 70.02% | 123% | 52.88% | 82.15% | Activity [1]: 67.95%; Activity (SNB-19): 74.25%; Activity (SF-295): 52.07%; Activity (T47D): 82.14%; Activity (EKVX): 86.68%; Activity (KM12): 64.38%; Activity (SW-620): 99.16%; Activity (MDA-MB-468): 83.46%; Activity (ACHN): 82.68%; Activity (SK-MEL-5): 82.15%; Activity (UACC-62): 79.67%; Activity (MDA-MB-435): 82.15%; Activity (Malme-3M): 91.75%; Activity (SN12C): 79.73%; Activity (NCI/ADR-RES): 95.06%; Activity (SK-MEL-28): 101%; Activity (NCI-H460): 72.92%; Activity (OVCAR-8): 88.85%; Activity (NCI-H23): 73.51%
